Experimental data reported in patent US4122274A, “3-Tetrazolo-5,6,7,8-substituted-pyrido[1,2-a]pyrimidin-4-ones” (priority 1977, dated 1978).
Read-outs that look alike come from different tables or passages of the source.

Experiments:
[1] = system: release of mediators, e.g. histamine and SRS-A; conditions: administered to asthmatic patients prior to inhalation of specific antigens; cited from earlier work
[2] = system: rat Passive Cutaneous Anaphylaxis (PCA) response; test: reagin-mediated rat Passive Cutaneous Anaphylaxis (PCA) screening test; format: in vivo, rat (Sprague-Dawley)
Description: The reagin-mediated rat Passive Cutaneous Anaphylaxis (PCA) screening test used to evaluate the present compounds is generally regarded as one of the best animal models for use in predicting the antiallergy activity of test compounds in man. Briefly, the method consists of passive sensitization of skin sites on the test animals with reaginic antibodies followed after 24 hours by administration of the test drug and antigen challenge. The allergic response is measured by use of Evans' blue dye and is evaluated by the spot diameter at the injection site. Details of the test are provided below.
A substituted ovalbumin antigen is used both as immunogen and challenging antigen. The antigen is prepared as follows: 500 mg. ovalbumin (EA) and 500 mg. K2 CO3 are dissolved in 25 ml. distilled H2 O and stirred at room temperature for 5 minutes. Five hundred (500) mg. dinitrobenzene sulfonic acid, Na^+ salt, (previously recrystallized from hot absolute ethanol) is then added slowly with continued stirring. The reaction mixture is then immediately placed in the dark and allowed to proceed for 2 hours with constant stirring. After 2 hours the mixture is placed in suitable dialysis tubing and dialyzed against 5 changes (4 liters each) of distilled H2 O at 5° C. After dialysis the product is lyophilized and stored at room temperature in a brown or amber container. The antigen obtained will appear as a light yellow, amorphous solid which is very soluble in water or saline. It is designated as DNP denatured ovalbumin (DNP-d EA).
Adult, male Sprague-Dawley rats are used as a source of reagin-rich antisera for the PCA model. Immunization is by a combination of DNP-d EA on Al(OH)3 gel and B. pertussis vaccine. Preparation of the DNP-d EA-gel immunogen is as follows: Dissolve the DNP-d EA in TBS so as to give a concentration of 10 mg./ml. Slowly add 1 ml. of this solution to 10 ml. Al(OH)3 gel (10 mg. solids/ml.) with constant stirring at room temperature. Stir the mixture an additional 30 minutes to insure a uniform adsorption of antigen on gel.
The resulting preparation is then used in combination with phase I B. pertussis vaccine to immunize male S/D rats as follows: For each rat administer 0.1 ml. DNP-d EA-gel suspension intramuscularly in each hind leg (200 μg DNP-d EA and 2 mg. gel total dose). Follow these injections by the intraperitoneal administration of 1.0 ml. B. pertussis vaccine (10-20 × 10^9 organisms). The use of light ether anesthesia during this procedure is recommended to insure proper intramuscular and intraperitoneal injections. Nine days following immunization (but no longer than 10) the animals are exsanguinated by cardiac puncture or abdominal aorta cannulation under ether or pentobarbital anesthesia. The collected whole blood is allowed to clot, the serum separated by centrifugation and the individual serum samples stored frozen until assayed for IgE content.
Individual serum samples should be screened for reaginic antibody concentration before being pooled with other sera, as not all rats respond to immunization procedures with reagin production. A 1:50 saline dilution of serum from each immunized rat is used for this purpose. Intradermal injections of 0.05 ml. of the diluted sera are made in the shaven backs of two small female recipient rats, 100-120 gms. Several serum samples can be tested simultaneously in recipient animals. After a 24 to 48 hour latent period antigen challenge is accomplished by intravenous administration to each rat of 1 mg. DNP-d EA in 0.5 ml. of 0.5% Evans' blue dye in saline. Sera which show positive PCA reactions at the 1:50 dilution, as measured 20 to 30 minutes post-challenge are pooled, dispensed in small aliquots and stored at -70° C. or lower until used. Negative sera may be discarded.
The IgE titer of the antisera pool should then be determined. […]

[3] = must be administered by inhalation; cited from earlier work
[4] = treatment of bronchial asthma; cited from earlier work
[5] = iv, test compounds given 1-5 min prior to antigen challenge, DSCG at time of challenge, read-out: ID50 (dose of compound that inhibits 50% of the response), i.v.
[6] = po, 10 min prior to antigen challenge, read-out: ID50 (dose of compound that inhibits 50% of the response), p.o.

O=C(O)c1cc(=O)c2c(OCC(O)COc3cccc4oc(C(=O)O)cc(=O)c34)cccc2o1 [DSCG, Disodium cromoglycate, reference compound]
inhibition of release of mediators, e.g. histamine and SRS-A [1]: inhibits the release of mediators | ED50 [2, 5]: ~0.6 mg/kg | ED50 [2, 6]: > 30 mg/kg | oral absorption [3]: not orally absorbed

O=c1c(-c2nnn[nH]2)cnc2ccccn12 [Example 1, 3-(1H-Tetrazol-5-yl)-4H-pyrido[1,2-a]pyrimidin-4-one]
ED50 [2, 5]: 0.06 mg/kg | ED50 [2, 6]: ~0.1 mg/kg

Cc1ccc2ncc(-c3nnn[nH]3)c(=O)n2c1 [Example 4, 7-Methyl-3-(1H-tetrazol-5-yl)-4H-pyrido[1,2-a]pyrimidin-4-one]
ED50 [2, 6]: ~0.1 mg/kg

Cc1ccn2c(=O)c(-c3nnn[nH]3)cnc2c1 [Example 5, 8-Methyl-3-(1H-tetrazol-5-yl)-4H-pyrido[1,2-a]pyrimidin-4-one]
ED50 [2, 6]: 2.4 mg/kg

CCc1ccc2ncc(-c3nnn[nH]3)c(=O)n2c1 [Example 6, 7-Ethyl-3-(1H-tetrazol-5-yl)-4H-pyrido[1,2-a]pyrimidin-4-one]
ED50 [2, 6]: 0.04 mg/kg

CCCCc1ccc2ncc(-c3nnn[nH]3)c(=O)n2c1 [Example 7, 7-n-Butyl-3-(1H-tetrazol-5-yl)-4H-pyrido[1,2-a]pyrimidin-4-one]
ED50 [2, 6]: ~0.1 mg/kg

O=c1c(-c2nnn[nH]2)cnc2ccc(-c3ccccc3)cn12 [Example 8, 7-Phenyl-3-(1H-tetrazol-5-yl)-4H-pyrido[1,2-a]pyrimidin-4-one]
ED50 [2, 6]: 0.05 mg/kg

O=c1c(-c2nnn[nH]2)cnc2ccc(Cl)cn12 [Example 9, 7-Chloro-3-(1H-tetrazol-5-yl)-4H-pyrido[1,2-a]pyrimidin-4-one]
ED50 [2, 6]: ~0.07 mg/kg

Cc1cccn2c(=O)c(-c3nnn[nH]3)cnc12 [Example 10, 9-Methyl-3-(1H-tetrazol-5-yl)-4H-pyrido[1,2-a]pyrimidin-4-one]
ED50 [2, 6]: 0.0066 mg/kg

Cc1cc(C)c2ncc(-c3nnn[nH]3)c(=O)n2c1 [Example 11, 7,9-Dimethyl-3-(1H-tetrazol-5-yl)-4H-pyrido[1,2-a]pyrimidin-4-one]
ED50 [2, 6]: 0.014 mg/kg

CCc1cccn2c(=O)c(-c3nnn[nH]3)cnc12 [Example 12, 9-Ethyl-3-(1H-tetrazol-5-yl)-4H-pyrido[1,2-a]pyrimidin-4-one]
ED50 [2, 6]: ~0.0033 mg/kg

CN1[C@@H]2CC[C@H]1C[C@@H](OC(=O)C(CO)c1ccccc1)C2 (stereo partly drawn) [atropine]
side effects [4]: cardiac stimulation and gastrointestinal distress

CNC[C@H](O)c1ccc(O)c(O)c1 [epinephrine]
side effects [4]: cardiac stimulation and gastrointestinal distress

CC(C)NCC(O)c1ccc(O)c(O)c1 (stereo not drawn) [isoproterenol]
side effects [4]: cardiac stimulation and gastrointestinal distress
